Experimental data reported in patent publication US4977181A, “Tromethamine salt of 1-methyl-beta-oxo-alpha-(phenylcarbamoyl)-2-pyrrolepropionitrile” (priority 1989, dated 1990).
Structures can show the parent of a compound that is named as a salt.

Key:
Sprague-Dawley rats = assay: Acute Toxicity Study (single oral dose, mortality); format: in vivo, rat (Sprague-Dawley); conditions: for Mortality, Female / Mortality, Male: single oral gavage, observed for 15 days; for Mortality, Female: female rats; for Mortality, Male: male rats
Experimental: (§1) A single equimolar dose of each compound is administered orally by gavage as a 3% corn starch suspension to 5 female and 5 male Sprague-Dawley rats. The animals are there observed for 15 days.
(§2) The comparative incidence of mortality for the free acid of formula I, the triethanolamine salt thereof and the tromethamine salt of formula II are as follows: […]

[1] = antiinflammatory activity; format: in vivo; conditions: in words
Experimental: The compound can be administered to the animals either enterally, preferably orally, parenterally, e.g. subcutaneously or intravenously, or topically, for example, in the form of aqueous solutions or suspensions. The applied dosage may range between about 0.1 and 100 mg/kg/day, preferably between about 1 and 50 mg/kg/day. The tests include the classical in vivo assay methods for said activities, such as the carrageenin paw-edema, adjuvant arthritis tests in rats, and the canine synovitis test.

cartilage matrix = assay: inhibition of cartilage matrix degradation; format: cell-based, bovine; conditions: in words
Experimental: The effect on cartilage matrix degradation can be determined in the cartilage-synovium co-culture model of matrix degradation which is carried out as follows:
The proteoglycan matrix of bovine nasal septum cartilage is labeled in vitro by incorporation of ^35 S into glycosaminoglycan. Cartilage slices are incubated overnight in a sulfate-free medium containing ^35 S-sodium sulfate. ^35 S-Labeled cartilage slices are co-cultured with normal synovium explants in multiwell tissue culture plates. After 4 days incubation a 100 μl aliquot of medium is counted. Cartilage slices are hydrolyzed and a 100 μl aliquot of cartilage hydrolysate is counted. The percent ^35 S released into the medium is determined and the percent of inhibition of matrix degradation is calculated.

cell-mediated immunity = assay: enhancement of depressed cell-mediated immunity; format: in vivo, rat; conditions: in words
Experimental: Immunopotentiating effects can be determined in BCG-immunized animals. In vitro, the enhancement of cell-mediated immunity is determined by measuring the increase in chemotaxis of macrophages isolated from BCG-immunized rats. In vivo, such is determined in the BCG-immunized adjuvant arthritic rat by measuring the effect on delayed hypersensitivity reaction essentially as described in Current Therapeutic Research 30, S34 (1981).

[2] = tolerability at therapeutically effective doses; format: in vivo
[3] = Acute Toxicity Study (single oral dose, mortality); format: in vivo, rat (Sprague-Dawley); conditions: rat, in vivo, po, 2400 umol/kg, 2.4 millimoles/Kg p.o., rat, both sexes; read-out: mortality rate
Experimental: as §1, §2

[4] = 2.4 Millimoles/Kg, listed as II
[5] = 3.6 Millimoles/Kg, listed as II

## Cn1cccc1C(=O)C(C#N)C(=O)Nc1ccccc1 (stereo not drawn) [formula II, 1-methyl-beta-oxo-alpha-(phenylcarbamoyl)-2-pyrrolepropionitrile (1:1) tromethamine salt]
Sprague-Dawley rats; [4]
  Mortality, Female: 0/5
  Mortality, Male: 0/5
Sprague-Dawley rats; 2.4 millimoles/Kg p.o., rat, both sexes
  deaths (animals): 0/10
Sprague-Dawley rats; [5]
  Mortality, Female: 5/5
  Mortality, Male: 5/5
Sprague-Dawley rats; rat, in words
  acute toxicity compared with free acid of formula I or the triethanolamine salt: less toxic than the free acid of formula I or the triethanolamine salt thereof
[1]
  antiinflammatory activity: displays antiinflammatory
Cartilage matrix
  inhibition of cartilage matrix degradation: inhibition of cartilage matrix degradation
cell-mediated immunity
  enhancement of depressed cell-mediated immunity: enhancement of depressed cell-mediated immunity
[2]
  tolerability: well tolerated
  undesirable side effects: essentially free of undesirable side effects

## Cn1cccc1C(=O)C(C#N)C(=O)Nc1ccccc1 (stereo not drawn) [formula I, 1-methyl-beta-oxo-alpha-phenylcarbamoyl-2-pyrrolepropionitrile]
Sprague-Dawley rats; 1.2 Millimoles/Kg
  Mortality, Female: 0/5
  Mortality, Male: 0/5
Sprague-Dawley rats; 2.4 Millimoles/Kg, listed as I
  Mortality, Female: 2/5
  Mortality, Male: 2/5
Sprague-Dawley rats; 2.4 millimoles/Kg p.o., rat, both sexes, 21600 min
  mortality rate: 40%
Sprague-Dawley rats; 3.6 Millimoles/Kg, listed as I
  Mortality, Female: 4/5
  Mortality, Male: 4/5

## Cn1cccc1C(=O)C(C#N)C(=O)Nc1ccccc1 (stereo not drawn) [triethanolamine salt, triethanolamine salt of 1-methyl-beta-oxo-alpha-(phenylcarbamoyl)-2-propionitrile]
[3]
  mortality at 360 h: 50%
Sprague-Dawley rats; 2.4 Millimoles/Kg
  Mortality, Female: 3/5
  Mortality, Male: 2/5
Sprague-Dawley rats; 3.6 Millimoles/Kg
  Mortality, Female: 5/5
  Mortality, Male: 5/5
